Assay results published in US20060069132A1, “Azolecarboxamide herbicides” (priority 2004, published 2006).

Key:
barnyardgrass [1] = experiment: Test B pre-/postemergence herbicide test; assay type: in vivo, Echinochloa crus-galli; details: for Plant response rating (0 to 100 scale), Barnyardgrass: 0 is no effect; for Plant response rating (0 to 100 scale), Barnyardgrass / Plant response rating, Barnyardgrass: preemergence; for Barnyardgrass plant response rating: postemergence; for Plant response rating, Barnyardgrass: 0 = no effect, 100 = complete control
Outline: (§1)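 Response was scored visually 13 to 15 days after treatment against untreated greenhouse controls, 0 meaning no effect and 100 complete control. Formulations (solvent mixture plus surfactant) went onto soil after planting, onto foliage of 1- to 4-leaf plants, and onto 2-leaf plants in a flooded paddy set including rice and barnyardgrass.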

Surinam grass = experiment: Test B pre-/postemergence herbicide test; assay type: in vivo, Urochloa decumbens; details: for Plant response rating (0 to 100 scale), Surinam Grass: 0 is no effect; for Plant response rating (0 to 100 scale), Surinam Grass / Plant response rating, Surinam Grass: preemergence; for Surinam Grass plant response rating: postemergence; for Plant response rating, Surinam Grass: 0 = no effect, 100 = complete control
Outline: (§2)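 Visual rating, 0 (no effect) to 100 (complete control), versus untreated controls after 13–15 d in greenhouse. Pre- and postemergence applications (postemergence plants 2–18 cm, 1–4 leaves); flooded paddy arm at 2-leaf stage. Compounds in non-phytotoxic solvent plus surfactant.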

cocklebur = experiment: Test B pre-/postemergence herbicide test; assay type: in vivo, Xanthium strumarium; details: for Plant response rating (0 to 100 scale), Cocklebur: 0 is no effect; for Plant response rating (0 to 100 scale), Cocklebur / Plant response rating, Cocklebur: preemergence; for Cocklebur plant response rating: postemergence; for Plant response rating, Cocklebur: 0 = no effect, 100 = complete control
Outline: as §1

corn = experiment: Test B pre-/postemergence herbicide test; assay type: in vivo, Zea mays; details: for Plant response rating (0 to 100 scale), Corn: 0 is no effect; for Plant response rating (0 to 100 scale), Corn / Plant response rating, Corn: preemergence; for Corn plant response rating: postemergence; for Plant response rating, Corn: 0 = no effect, 100 = complete control
Outline: as §2

large crabgrass = experiment: Test B pre-/postemergence herbicide test; assay type: in vivo, Digitaria sanguinalis; details: for Plant response rating (0 to 100 scale), Crabgrass, Large: 0 is no effect; for Plant response rating (0 to 100 scale), Crabgrass, Large / Plant response rating, Crabgrass, Large: preemergence; for Crabgrass, Large plant response rating: postemergence; for Plant response rating, Crabgrass, Large: 0 = no effect, 100 = complete control
Outline: as §2

giant foxtail = experiment: Test B pre-/postemergence herbicide test; assay type: in vivo, Setaria faberi; details: for Plant response rating (0 to 100 scale), Foxtail, Giant: 0 is no effect; for Plant response rating (0 to 100 scale), Foxtail, Giant / Plant response rating, Foxtail, Giant: preemergence; for Foxtail, Giant plant response rating: postemergence; for Plant response rating, Foxtail, Giant: 0 = no effect, 100 = complete control
Outline: as §2

lambsquarters = experiment: Test B pre-/postemergence herbicide test; assay type: in vivo, Chenopodium album; details: for Plant response rating (0 to 100 scale), Lambsquarters: 0 is no effect; for Plant response rating (0 to 100 scale), Lambsquarters / Plant response rating, Lambsquarters: preemergence; for Lambsquarters plant response rating: postemergence; for Plant response rating, Lambsquarters: 0 = no effect, 100 = complete control
Outline: as §2

morningglory = experiment: Test B pre-/postemergence herbicide test; assay type: in vivo, Ipomoea coccinea; details: for Plant response rating (0 to 100 scale), Morningglory: 0 is no effect; for Plant response rating (0 to 100 scale), Morningglory / Plant response rating, Morningglory: preemergence; for Morningglory plant response rating: postemergence; for Plant response rating, Morningglory: 0 = no effect, 100 = complete control
Outline: as §1

pigweed = experiment: Test B pre-/postemergence herbicide test; assay type: in vivo, Amaranthus retroflexus; details: for Plant response rating (0 to 100 scale), Pigweed: 0 is no effect; for Plant response rating (0 to 100 scale), Pigweed / Plant response rating, Pigweed: preemergence; for Pigweed plant response rating: postemergence; for Plant response rating, Pigweed: 0 = no effect, 100 = complete control
Outline: as §2

velvetleaf = experiment: Test B pre-/postemergence herbicide test; assay type: in vivo, Abutilon theophrasti; details: for Plant response rating (0 to 100 scale), Velvetleaf: 0 is no effect, preemergence; for Velvetleaf plant response rating: postemergence
Outline: as §2

blackgrass = experiment: Test B postemergence herbicide test; assay type: in vivo, Alopecurus myosuroides; details: postemergence
Outline: (§3)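 Visual control ratings, 0–100 versus untreated controls, taken after 13 to 15 days in the greenhouse. Blackgrass received a postemergence spray at the 1- to 4-leaf stage (2–18 cm); ducksalad, umbrella sedge and barnyardgrass were flooded-paddy treated at 2 leaves.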

wheat = experiment: Test B postemergence herbicide test; assay type: in vivo, Triticum aestivum; set-up: key to Wheat plant response rating: 0 = no effect, 100 = complete control; details: postemergence
Outline: (§4)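 Formulated test chemicals went onto postemergence plants measuring 2 to 18 cm, at one to four leaves. For the paddy assay, species had reached two leaves. Scoring took place 13–15 days later by eye, relative to untreated plants, using 0 for no effect up to 100 for full control.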

wild oat = experiment: Test B postemergence herbicide test; assay type: in vivo, Avena fatua; details: postemergence
Outline: as §4

rice = experiment: Test B flooded paddy test; assay type: in vivo, Oryza sativa; details: 1000 g ai/ha, scale 0 to 100 (0 no effect, 100 complete control)
Outline: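 Read-out: visual comparison with controls, scored 0 to 100, where 100 means complete control and 0 no effect. Formulated chemicals were applied postemergence to plants 2–18 cm tall (1- to 4-leaf), or to flooded-paddy plants at the 2-leaf stage, then held 13 to 15 days under glass.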

[2] = system: small flower umbrella sedge; experiment: Test B flooded paddy test; assay type: in vivo, Cyperus difformis; details: 1000 g ai/ha, scale 0 to 100 (0 no effect, 100 complete control)
Outline: as §3

ducksalad = experiment: Test B flooded paddy test; assay type: in vivo, Heteranthera limosa; details: 1000 g ai/ha, scale 0 to 100 (0 no effect, 100 complete control)
Outline: as §3

barnyardgrass [3] = experiment: Test B flooded paddy test; assay type: in vivo, Echinochloa crus-galli; details: 1000 g ai/ha, scale 0 to 100 (0 no effect, 100 complete control)
Outline: as §3

[4] = 125 g ai/ha, 100 is complete control
[5] = 125 g ai/ha, visual rating, scale 0 (no effect) to 100 (complete control)
[6] = 500 g ai/ha, scale 0 to 100, 0 is no effect, 100 is complete control

CCn1nc(C(C)(C)C)cc1C(=O)Nc1cc(OCCF)ccc1F [Compound 350]
Plant response rating (0 to 100 scale), Barnyardgrass (barnyardgrass [1]; [4]): 0
Barnyardgrass plant response rating (barnyardgrass [1]; [5]): 0
Plant response rating, Barnyardgrass (barnyardgrass [1]; 500 g ai/ha, visual rating): 0
Barnyardgrass plant response rating (barnyardgrass [1]; [6]): 0
Plant response rating (0 to 100 scale), Surinam Grass (Surinam grass; [4]): 0
Surinam Grass plant response rating (Surinam grass; [5]): 0
Plant response rating, Surinam Grass (Surinam grass; 500 g ai/ha, visual rating): 0
Surinam Grass plant response rating (Surinam grass; [6]): 10
Plant response rating (0 to 100 scale), Cocklebur (cocklebur; [4]): 0
Cocklebur plant response rating (cocklebur; [5]): 0
Plant response rating, Cocklebur (cocklebur; 500 g ai/ha, visual rating): 0
Cocklebur plant response rating (cocklebur; [6]): 20
Plant response rating (0 to 100 scale), Corn (corn; [4]): 0
Corn plant response rating (corn; [5]): 0
Plant response rating, Corn (corn; 500 g ai/ha, visual rating): 0
Corn plant response rating (corn; [6]): 20
Plant response rating (0 to 100 scale), Crabgrass, Large (large crabgrass; [4]): 0
Crabgrass, Large plant response rating (large crabgrass; [5]): 0
Plant response rating, Crabgrass, Large (large crabgrass; 500 g ai/ha, visual rating): 0
Crabgrass, Large plant response rating (large crabgrass; [6]): 10
Plant response rating (0 to 100 scale), Foxtail, Giant (giant foxtail; [4]): 0
Foxtail, Giant plant response rating (giant foxtail; [5]): 0
Plant response rating, Foxtail, Giant (giant foxtail; 500 g ai/ha, visual rating): 0
Foxtail, Giant plant response rating (giant foxtail; [6]): 30
Plant response rating (0 to 100 scale), Lambsquarters (lambsquarters; [4]): 0
Lambsquarters plant response rating (lambsquarters; [5]): 0
Plant response rating, Lambsquarters (lambsquarters; 500 g ai/ha, visual rating): 0
Lambsquarters plant response rating (lambsquarters; [6]): 10
Plant response rating (0 to 100 scale), Morningglory (morningglory; [4]): 0
Morningglory plant response rating (morningglory; [5]): 0
Plant response rating, Morningglory (morningglory; 500 g ai/ha, visual rating): 0
Plant response rating (0 to 100 scale), Pigweed (pigweed; [4]): 0
Pigweed plant response rating (pigweed; [5]): 0
Plant response rating, Pigweed (pigweed; 500 g ai/ha, visual rating): 0
Pigweed plant response rating (pigweed; [6]): 60
Plant response rating (0 to 100 scale), Velvetleaf (velvetleaf; [4]): 0
Velvetleaf plant response rating (velvetleaf; [5]): 0
Velvetleaf plant response rating (velvetleaf; [6]): 10
Blackgrass plant response rating (blackgrass; [5]): 0
Blackgrass plant response rating (blackgrass; [6]): 0
Wheat plant response rating (wheat; [5]): 0
Wheat plant response rating (wheat; [6]): 0
Oat, Wild plant response rating (wild oat; [5]): 0
Oat, Wild plant response rating (wild oat; [6]): 0
Rice plant response rating (rice): 0
Sedge, Umbrella plant response rating [2]: 0
Ducksalad plant response rating (ducksalad): 0
Barnyardgrass plant response rating (barnyardgrass [3]): 0

CCc1nn(C(C)(C)C)nc1C(=O)Nc1cc(C(=O)N(C)C)ccc1F [Compound 361]
Plant response rating (0 to 100 scale), Barnyardgrass (barnyardgrass [1]; [4]): 80
Barnyardgrass plant response rating (barnyardgrass [1]; [5]): 0
Plant response rating, Barnyardgrass (barnyardgrass [1]; 500 g ai/ha, visual rating): 100
Barnyardgrass plant response rating (barnyardgrass [1]; [6]): 10
Plant response rating (0 to 100 scale), Surinam Grass (Surinam grass; [4]): 50
Surinam Grass plant response rating (Surinam grass; [5]): 10
Plant response rating, Surinam Grass (Surinam grass; 500 g ai/ha, visual rating): 90
Surinam Grass plant response rating (Surinam grass; [6]): 10
Plant response rating (0 to 100 scale), Cocklebur (cocklebur; [4]): 0
Cocklebur plant response rating (cocklebur; [5]): 10
Plant response rating, Cocklebur (cocklebur; 500 g ai/ha, visual rating): 50
Cocklebur plant response rating (cocklebur; [6]): 20
Plant response rating (0 to 100 scale), Corn (corn; [4]): 30
Corn plant response rating (corn; [5]): 0
Plant response rating, Corn (corn; 500 g ai/ha, visual rating): 70
Corn plant response rating (corn; [6]): 0
Plant response rating (0 to 100 scale), Crabgrass, Large (large crabgrass; [4]): 80
Crabgrass, Large plant response rating (large crabgrass; [5]): 10
Plant response rating, Crabgrass, Large (large crabgrass; 500 g ai/ha, visual rating): 100
Crabgrass, Large plant response rating (large crabgrass; [6]): 10
Plant response rating (0 to 100 scale), Foxtail, Giant (giant foxtail; [4]): 50
Foxtail, Giant plant response rating (giant foxtail; [5]): 20
Plant response rating, Foxtail, Giant (giant foxtail; 500 g ai/ha, visual rating): 100
Foxtail, Giant plant response rating (giant foxtail; [6]): 30
Plant response rating (0 to 100 scale), Lambsquarters (lambsquarters; [4]): 80
Lambsquarters plant response rating (lambsquarters; [5]): 70
Plant response rating, Lambsquarters (lambsquarters; 500 g ai/ha, visual rating): 100
Lambsquarters plant response rating (lambsquarters; [6]): 70
Plant response rating (0 to 100 scale), Morningglory (morningglory; [4]): 10
Morningglory plant response rating (morningglory; [5]): 10
Plant response rating, Morningglory (morningglory; 500 g ai/ha, visual rating): 60
Morningglory plant response rating (morningglory; [6]): 80
Plant response rating (0 to 100 scale), Pigweed (pigweed; [4]): 80
Pigweed plant response rating (pigweed; [5]): 20
Plant response rating, Pigweed (pigweed; 500 g ai/ha, visual rating): 100
Pigweed plant response rating (pigweed; [6]): 40
Plant response rating (0 to 100 scale), Velvetleaf (velvetleaf; [4]): 20
Velvetleaf plant response rating (velvetleaf; [5]): 10
Velvetleaf plant response rating (velvetleaf; [6]): 30
Blackgrass plant response rating (blackgrass; [5]): 10
Blackgrass plant response rating (blackgrass; [6]): 40
Wheat plant response rating (wheat; [5]): 0
Wheat plant response rating (wheat; [6]): 0
Oat, Wild plant response rating (wild oat; [5]): 0
Oat, Wild plant response rating (wild oat; [6]): 20
Rice plant response rating (rice): 90
Sedge, Umbrella plant response rating [2]: 90
Ducksalad plant response rating (ducksalad): 90
Barnyardgrass plant response rating (barnyardgrass [3]): 80
